Consider three compounds from patent US20230203485A1, “METHODS FOR MODULATING MHC-I EXPRESSION AND IMMUNOTHERAPY USES THEREOF” (Dana-Farber Cancer Institute, Inc., priority 2020, published 2023).

The test system of one assay is surface HLA class I. The experiment in a line: USP7 inhibitor treatment of MCC lines, surface HLA-I by flow cytometry. The class given is cell-based, human. The settings on record: 3 days. Background: A flow cytometer gives signals particle by particle.
The subject of another assay is surface HLA-I. The experiment in a line: USP7 inhibitor treatment of MKL-1 p53-WT control and p53-KO lines, surface HLA I by flow cytometry. The class given is cell-based, human. On the procedure: For MCC-301 USP7 inhibitor experiments, two and a half million MCC cells were plated in a T25 flask and incubated with the USP7 inhibitor XL177A and control enantiomer XL177B at 10 μM, 1 μM, 100 nM, and 10 nM. Cells were incubated for 3 to 4 days. Post incubation, one million cells were treated with Versene (Gibco) to dissociate cell clusters. Surface Fc receptors were blocked with 5 μL Human TruStain FcX (Biolegend #422302). Surface HLA-I was stained with 5 μL of Pan HLA-Class I antibody (Clone W6/32, Santa Cruz Biotechnologies) for 30 minutes in dark at 4° C. Cells were washed with PBS and fixed with 4% paraformaldehyde fixation buffer (Biolegend). Cells were analyzed on a BD LSRFortessa. MCC-301 data are representative of 4 independent experiments. To perform statistical analysis, for each cell line, one-way ANOVA was first performed on the MFIs of the DMSO group and all experimental groups. Then, individual Welch t-tests were performed for each concentration, comparing the fold-changes of MFI (inhibitor)/mean MFI (DMSO control) between XL177A and XL177B.
For MKL-1 USP7 inhibitor experiments, p53-WT control lines (WT, scrambled, AAVS1) and three p53-KO lines were treated with USP7 inhibitors and assessed by flow cytometry for surface HLA I as described above for MCC-301.

The test system of assay [1] is MKL-1 control or p53 KO cells. The experiment in a line: Cell cycle analysis (EdU/DAPI flow cytometry). The class given is cell-based, human. The settings on record: MKL-1 TP53-WT and TP53-KO, 100 nM, three days. On the procedure:
1 million MKL-1 control or p53 KO cells were plated and treated with DMSO, XL177A (100 nM) or XL177B (100 nM) for three days. During the last hour of the three-day treatment, the cells were pulsed with 10 μM EdU nucleotide. The cells were collected by centrifugation, treated with Accutase™ (Stem Cell Technologies) to break apart clumps, washed with PBS and fixed using 4% Formaldehyde solution in PBS at Room temperature for 15 mins. Cells were washed with 1% BSA in PBS and resuspended in 70% ice cold ethanol and incubated at −20° C. overnight for additional fixing and permeabilization. The cells were stored in 70% ethanol at −20° C. until the day the data was acquired. On the day of data acquisition, the cells were collected by centrifugation and washed twice with PBS. The incorporated EdU in the cells were labeled with a CLICK reaction cocktail (1 mM CuSO4, 100 μM THPTA, 100 mM sodium ascorbate, and 2.2 μM Alexa 647 azide in PBS) at room temperature with rocking for 30 minutes. The samples were then washed with 1% BSA in PBS once followed by two washes with PBS and incubated with a 1 μg/ml DAPI, 100 ng/ml RNase A solution for one hour at Room temperature to stain the DNA. The samples were then passed through strainer tubes and analyzed using a BD Fortessa analyzer. The flow cytometry data was analyzed using the FlowJo Software. […]

In assay [2] the test system is HLA-I-bound peptidomes of MCC-301 cells. The experiment in a line: HLA-I-bound immunopeptidome of USP7 inhibitor treated MCC-301 cells (TMT LC-MS/MS). The assay is classed as cell-based, human. The method, then: Up to 40 million or 0.2 g of MCC cells were immunoprecipitated. Briefly, MCC cells were harvested and lysed in ice-cold lysis buffer containing […] (pH 8.0), 1 mM EDTA (pH 8.0), 0.1M sodium chloride, Triton X-100, 0.06M octyl β-d-glucopyranoside, 100 U/mL DNAse I, 1 mM phenylmethanesulfonyl fluoride (all from Sigma Aldrich), and protease inhibitor cocktail (Roche Diagnostics). Cell lysate was centrifuged at 12,700 rpm at 4° C. for 22 min. Lysate supernatant was coupled with Gammabind Plus sepharose beads (GE Healthcare) and incubated with 10 μg of HLA-I antibody (Clone W6/32, Santa Cruz Biotechnologies) at 4° C. under rotary agitation for 3 h. After incubation, the lysate-bead-antibody mixture was briefly centrifuged and the supernatant was discarded. Beads were washed with lysis buffer, consisting of wash buffer containing 40 mM Tris (pH 8.0), 1 mM EDTA (pH 8.0), 0.1M sodium chloride, 0.06M octyl β-d-glucopyranoside, and 20 mM Tris buffer, without protease inhibitors. Gel loading tips (Fisherbrand) were used to remove as much fluid from beads as possible. Peptides of up to three immunoprecipitations were combined, acid eluted, and analyzed using LC/MS-MS. Briefly, peptides were resuspended in 3% acetonitrile with 5% formic acid and loaded onto an analytical column (20-30 cm with 1.9 μm C18 Reprosil beads, Dr. Maisch HPLC GmbH); packed in-house). Peptides were eluted in a 6-30% gradient (EasyLC 1000 or 1200, Thermo Fisher Scientific) and analyzed on a QExactive Plus, Fusion Lumos, or Orbitrap Exploris 480 (Thermo Fisher Scientific). For Lumos measurements, peptides were also subjected to fragmentation if they were singly charged. For Orbitrap Exploris measurements (2 immunoprecipitations pooled, +/−IFN-γ, FIG. 3) and detection of the large T antigen peptide (3 immunoprecipitations of the MCC-367 cell line treated with IFN-γ) peptides were further fractionated using stage tip basic reverse phase separation with 2 punches of SDB-XC material (Empore 3M) and increasing concentrations of acetonitrile (5%, 10% and 30% in 0.1% NH4OH, pH 10). Fractions were analyzed on a Fusion Lumos or Orbitrap Exploris 480 equipped with a FAIMSpro interface. […]
Mass spectra were interpreted using Spectrum Mill software package v7.1 pre-Release (Broad Institute, Cambridge, Mass.). […] MS/MS spectra were searched against a protein sequence database that contained 90,904 entries, including all UCSC Genome Browser genes with hg19 annotation of the genome and its protein coding transcripts (52,788 entries), common human virus sequences (30,181 entries), recurrently mutated proteins observed in tumors from 26 tissues (4,595 entries), 264 common laboratory contaminants as well as protein sequences containing somatic mutations detected in MCC cell lines (3,076 entries). […]

Another assay has as its target USP7 (Homo sapiens, UniProt Q93009). The settings on record: enantiomer control vs XL177A; cited from earlier work.
For another assay, the system named is autologous T cells. The experiment in a line: IFN-γ ELISpot with patient MCC-367 PBMCs. The assay is classed as cell-based, human. The settings on record: 10 μg/ml peptide. On the procedure:
Matching patient peripheral blood mononuclear cells (PBMCs) from patient MCC-367 were thawed, and 10^7 cells per well were seeded in 24 well plates overnight. Cells were stimulated with 10 μg/ml of the LT antigen peptide […] (identified in the MCC-367 HLA peptidome, FIG. 3F) in complete DMEM supplemented with 10% Human serum and 20 ng/ml IL-7 (PeproTech). After 3 days of stimulation, cells were supplemented with 20 units/mL IL-2 (PeproTech). After 10 days of stimulation, cells were cytokine deprived overnight. 50,000 cells per well were stimulated in an IFN-γ ELISpot assay with 10 μg/ml of the […] peptide. DMSO and an HIV-GAG peptide were used as negative controls. CEF (Mabtech) and PHA (Sigma Aldrich) were used as positive controls (not shown). ELISpot and T cell culture methods were described in detail previously.

Setting [3] is: 100 nM, three lines (MCC-277, -290, -301).
Setting [4] is: 100 nM, two MCPyV+ lines (MCC-301 and -277).

Sequence of USP7 (Q93009 whole entry): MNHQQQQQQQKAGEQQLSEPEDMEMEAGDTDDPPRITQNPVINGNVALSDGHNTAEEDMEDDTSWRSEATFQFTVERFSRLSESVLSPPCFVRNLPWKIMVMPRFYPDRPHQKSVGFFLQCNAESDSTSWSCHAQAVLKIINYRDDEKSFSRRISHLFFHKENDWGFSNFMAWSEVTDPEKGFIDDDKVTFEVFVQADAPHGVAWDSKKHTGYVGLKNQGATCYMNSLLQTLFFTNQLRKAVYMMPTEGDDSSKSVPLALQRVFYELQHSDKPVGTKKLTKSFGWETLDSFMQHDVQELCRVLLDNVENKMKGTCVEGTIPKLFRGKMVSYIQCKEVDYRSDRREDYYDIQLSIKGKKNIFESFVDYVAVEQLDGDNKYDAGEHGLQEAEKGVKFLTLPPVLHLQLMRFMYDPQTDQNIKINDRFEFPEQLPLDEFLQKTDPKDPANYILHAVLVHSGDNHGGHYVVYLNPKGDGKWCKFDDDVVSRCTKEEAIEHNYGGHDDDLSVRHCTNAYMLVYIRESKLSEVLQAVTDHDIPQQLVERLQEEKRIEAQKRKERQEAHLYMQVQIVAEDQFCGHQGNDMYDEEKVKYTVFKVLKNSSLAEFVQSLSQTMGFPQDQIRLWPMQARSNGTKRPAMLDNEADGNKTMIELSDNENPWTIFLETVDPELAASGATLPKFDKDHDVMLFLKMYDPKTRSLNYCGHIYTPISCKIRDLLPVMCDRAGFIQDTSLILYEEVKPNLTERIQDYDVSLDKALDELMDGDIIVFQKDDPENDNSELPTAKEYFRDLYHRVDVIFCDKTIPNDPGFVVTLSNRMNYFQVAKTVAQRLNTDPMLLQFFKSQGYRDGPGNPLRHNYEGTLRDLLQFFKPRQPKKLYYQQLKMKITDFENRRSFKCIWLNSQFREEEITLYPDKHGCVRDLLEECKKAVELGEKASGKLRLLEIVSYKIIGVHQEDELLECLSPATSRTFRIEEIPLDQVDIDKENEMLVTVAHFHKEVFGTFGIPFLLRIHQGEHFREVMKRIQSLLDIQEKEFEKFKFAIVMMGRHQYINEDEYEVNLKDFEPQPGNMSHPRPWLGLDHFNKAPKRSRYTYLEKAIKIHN

As for `CN1CCN(CCC(=O)Nc2ccc3c(=O)n(CC4(O)CCN(C(=O)[C@@H](CCCNC(=O)c5ccc6c(Cl)c7c(nc6c5)CCCC7)Cc5ccccc5)CC4)cnc3c2)CC1` [XL177A], in the assay on surface HLA class I (setting [3]), the “mean fold increase in expression of surface HLA class I relative to DMSO” value turned out to be 1.89 fold and the “range of fold increase in expression of surface HLA class I relative to DMSO” value is on record as 1.60-2.27 fold. Besides, in the assay on surface HLA class I (setting [4]), the “mean fold increase in expression of surface HLA-I relative to DMSO” value turned out to be 2.0 fold and the “range of fold increase in expression of surface HLA-I relative to DMSO” value is on record as 1.78-2.27 fold. In addition, in the assay with surface HLA class I (MCC-290 (MCPyV−)), the “increase in HLA-I levels in MCC-290” value is reported as “more modest increase”. In addition, the “increase in HLA I expression in MCC-320” value in the assay on surface HLA class I (MCC-320 (MCPyV−)) was “did not exhibit a statistically significant increase and not”. For the same compound, the “surface HLA-I relative to XL177B and DMSO” value in the assay with surface HLA-I (MKL-1 TP53-KO lines) is given as “increased”. Moreover, the “surface HLA-I relative to XL177B and DMSO” value with surface HLA-I (MKL-1 TP53-WT lines) was “increased”. In assay [1], the cell cycle shift entry is “slight cell cycle shifts from S to G1 phase”. In assay [2], the “abundance of displayed HLA-I peptides compared to XL177B and untreated cells” value is “higher abundances of displayed peptides”; the “frequency of peptides displayed on each respective HLA-I gene (HLA-A, -B, -C)” value is “did not affect”. The “percent of significantly differing peptides more abundant compared to untreated cells” value in assay [2] (out of 282 peptides) stood at 95.7%. The “number of peptides more abundant compared to untreated cells” value in assay [2] (out of 282 peptides whose abundance significantly differed (P<0.05)) is reported as 270 peptides.
As for `CN1CCN(CCC(=O)Nc2ccc3c(=O)n(CC4(O)CCN(C(=O)[C@H](CCCNC(=O)c5ccc6c(Cl)c7c(nc6c5)CCCC7)Cc5ccccc5)CC4)cnc3c2)CC1` [XL177B], the “potency relative to XL177A (fold less potent)” value on USP7 is reported as 500 fold.
In the case of “TSDKAIELY [peptide derived from the OBD domain of MCPyV LT, detected in the MCC-367 HLA peptidome]”, the “reactivity of autologous T cells by ELISpot” value in the assay with autologous T cells is listed as “confirmed”.
